The results in this text go back to ChEMBL document CHEMBL3877278, “Antiproliferative activity of amino substituted benzo[b]thieno[2,3-b]pyrido[1,2-a]benzimidazoles explored by 2D and 3D cell culture system” (Eur J Med Chem, 2017).

Data set [1] can be described thus: Antiproliferative activity against 3D culture of human MDA-MB-231 cells after 72 hrs MTS assay. Conditions: MDA-MB-231, 72 h. It is filed as functional, cell-based. A general note: Tetrazolium dyes change colour on reduction, which living cells bring about.
A short description of data set [2]: Lipophilicity, log D of the compound at pH 7.4 by HPLC method. The format is physicochemical. To be noted: buffer.
Data set [3] can be described thus: Lipophilicity, log D of the compound at pH 2.7 by HPLC method. The format is physicochemical. To be noted: buffer.
Data set [4] in a line: Antiproliferative activity against 3D culture of human SK-BR-3 cells after 72 hrs MTS assay. Conditions: SK-BR-3, 72 h. It is filed as functional, cell-based.
Data set [5] can be described thus: Antiproliferative activity against 2D culture of human T47D cells after 72 hrs MTS assay. It is filed as functional, cell-based.
Data set [6] is described as follows: Antiproliferative activity against 2D culture of human MDA-MB-231 cells after 72 hrs MTS assay. Conditions: MDA-MB-231, 72 h. The format is functional, cell-based.
A short description of data set [7]: Antiproliferative activity against 3D culture of human T47D cells after 72 hrs MTS assay. The format is functional, cell-based.
Data set [8] can be described thus: Antiproliferative activity against 2D culture of human SK-BR-3 cells after 72 hrs MTS assay. Conditions: SK-BR-3, 72 h. It is filed as functional, cell-based.

For the compound `N#Cc1c(N2CCCCC2)c2ccc(N3CCCCC3)cc2n2c1nc1ccccc12`, the IC50 in data set [1], in data set [4], in data set [5], in data set [6], in data set [7] and in data set [8] was > 30 µM in each case. For the same compound, the pH-dependent lipophilicity (logD) in data set [2] was 9.11; in data set [3], 7.51.
For `CN(C)CCCNc1ccc2cc(C#N)c3nc4ccccc4n3c2c1`, the IC50 was 11 µM in data set [1]; > 30 µM in data set [4]; 12 µM in data set [5]; 3 µM in data set [6]; > 30 µM in data set [7]; 4 µM in data set [8]. Further, the logD stood at 2.14 in data set [2] (read-out: logD) and 0.44 in data set [3].
Consider `N#Cc1c(N2CCNCC2)c2ccc(N3CCNCC3)cc2n2c1nc1ccccc12`, for which the IC50 was 9 µM in data set [1]; > 30 µM in data set [4]; 5 µM in data set [5]; 2 µM in data set [6]; > 30 µM in data set [7]; 7 µM in data set [8]. The logD in data set [2] (read-out: logD) was 0.87; in data set [3], -0.98.
On to `CC(C)CNc1c(C#N)c2nc3ccccc3n2c2ccccc12`, for which the IC50 in data set [1] was > 30 µM; in data set [4], > 30 µM; in data set [5] it was > 30 µM; in data set [6], > 30 µM; in data set [7], > 30 µM; in data set [8], 4 µM. Further, the figures for the logD in data set [2] (read-out: logD) and in data set [3] were 5.52 and 2.77, respectively.
In the case of `CN(C)CCCNc1ccc2c(c1)sc1cc(C#N)c3nc4ccccc4n3c12`, the IC50 in data set [1] was 5 µM; in data set [4] it was 27 µM; in data set [5], 5 µM; in data set [6], 2 µM; in data set [7], > 30 µM; in data set [8] it was 4 µM. For the same compound, the values for the log distribution coefficient (logD) in data set [2] (read-out: logD) and in data set [3] were 2.91 and 1.03, respectively.
As to `N#CC1C(=O)c2ccccc2-n2c1nc1ccccc12` (stereo not drawn), the IC50 in data set [1], in data set [4], in data set [5], in data set [6], in data set [7] and in data set [8] was > 30 µM throughout. Also, the figures for the logD in data set [2] (read-out: logD) and in data set [3] were 2.09 and 2.6, respectively.
In the case of `N#Cc1c(N2CCNCC2)c2ccccc2n2c1nc1ccccc12`, the IC50 in data set [1] is 7 µM; in data set [4] it was > 30 µM; in data set [5], > 30 µM; in data set [6] it was 8 µM; in data set [7] it was > 30 µM; in data set [8], 9 µM. Further, the logD in data set [2] (read-out: logD) was 2.22; in data set [3], 0.53.
For the compound `N#Cc1c(=O)c2sc3ccccc3c2n2c1[nH]c1ccccc12`, the IC50 in data set [1], in data set [4], in data set [5], in data set [6], in data set [7] and in data set [8] was > 30 µM throughout. The pH-dependent lipophilicity (logD) came out at 2.95 in data set [2] (read-out: logD) and 3.76 in data set [3].
In the case of `N#Cc1cc2ccc(N3CCCCC3)cc2n2c1nc1ccccc12`, the IC50 is > 30 µM in data set [1]; > 30 µM in data set [4]; > 30 µM in data set [5]; 7 µM in data set [6]; > 30 µM in data set [7]; 3 µM in data set [8]. In addition, the results for the logD in data set [2] (read-out: logD) and in data set [3] were 7.07 and 7, respectively.
For `N#Cc1cc2sc3cc(N4CCCCC4)ccc3c2n2c1nc1ccccc12`, the IC50 in data set [1], in data set [4], in data set [5], in data set [6], in data set [7] and in data set [8] was > 30 µM throughout. Also, the logD in data set [2] (read-out: logD) was 8.5; in data set [3], 8.52.
With `N#Cc1c(Cl)c2sc3ccccc3c2n2c1nc1ccccc12`, the IC50 in data set [1] is > 30 µM; in data set [4], > 30 µM; in data set [5], 1 µM; in data set [6] it was > 30 µM; in data set [7], > 30 µM; in data set [8] it was > 30 µM. Moreover, the logD was 7.32 in data set [2] (read-out: logD) and 7.38 in data set [3].
For `N#Cc1c(N2CCCCC2)c2sc3ccccc3c2n2c1nc1ccccc12`, the IC50 was > 30 µM in data set [1]; > 30 µM in data set [4]; 5 µM in data set [5]; 6 µM in data set [6]; > 30 µM in data set [7]; > 30 µM in data set [8]. Moreover, the logD in data set [2] (read-out: logD) is 8.34; in data set [3] it was 7.7.
Regarding `N#Cc1cc2ccc(N3CCNCC3)cc2n2c1nc1ccccc12`, the concentration for half-maximal inhibition (IC50) in data set [1] is 5 µM; in data set [4] it was > 30 µM; in data set [5], 15 µM; in data set [6], 3 µM; in data set [7], > 30 µM; in data set [8], 2 µM. Further, the logD was found to be 2.01 in data set [2] (read-out: logD) and 0.27 in data set [3].
With `N#Cc1c(N2CCNCC2)c2sc3ccccc3c2n2c1nc1ccccc12`, the IC50 is 5 µM in data set [1]; > 30 µM in data set [4]; 5 µM in data set [5]; 5 µM in data set [6]; > 30 µM in data set [7]; 4 µM in data set [8]. The figures for the logD in data set [2] (read-out: logD) and in data set [3] were 3.44 and 1.08, respectively.
Turning to `N#Cc1c(Cl)c2ccc(F)cc2n2c1nc1ccccc12`, the IC50 in data set [1] was > 30 µM; in data set [4] it was > 30 µM; in data set [5] it was 2 µM; in data set [6], 11 µM; in data set [7], > 30 µM; in data set [8], 5 µM. For the same compound, the logD in data set [2] (read-out: logD) was 6.05; in data set [3], 6.11.
On to `CN(C)CCCNc1c(C#N)c2nc3ccccc3n2c2c1sc1ccccc12`, for which the IC50 in data set [1] turned out to be 4 µM; in data set [4], 10 µM; in data set [5] it was 4 µM; in data set [6], 3 µM; in data set [7], 23 µM; in data set [8] it was 1 µM. Also, the results for the logD in data set [2] (read-out: logD) and in data set [3] were 3.44 and 0.69, respectively.
In the case of `N#Cc1cc2sc3cc(N4CCNCC4)ccc3c2n2c1nc1ccccc12`, the IC50 was 19 µM in data set [1]; 24 µM in data set [4]; 5 µM in data set [5]; 4 µM in data set [6]; 26 µM in data set [7]; 2 µM in data set [8]. Also, the figures for the logD in data set [2] (read-out: logD) and in data set [3] were 2.75 and 0.84, respectively.
As for `N#CC1C(=O)c2ccc(F)cc2-n2c1nc1ccccc12` (stereo not drawn), the IC50 in data set [1], in data set [4], in data set [5], in data set [6], in data set [7] and in data set [8] was > 30 µM each time. In addition, the logD amounted to 2.46 in data set [2] (read-out: logD) and 3 in data set [3].
For the compound `N#Cc1c(Cl)c2ccccc2n2c1nc1ccccc12`, the IC50 in data set [1] was > 30 µM; in data set [4], > 30 µM; in data set [5], 1 µM; in data set [6], > 30 µM; in data set [7] it was > 30 µM; in data set [8], > 30 µM. For the same compound, the logD is 5.85 in data set [2] (read-out: logD) and 5.9 in data set [3].
With `CC(C)CNc1ccc2c(c1)sc1cc(C#N)c3nc4ccccc4n3c12`, the IC50 is > 30 µM in data set [1]; > 30 µM in data set [4]; 2 µM in data set [5]; 3 µM in data set [6]; 12 µM in data set [7]; 5 µM in data set [8]. Further, the values for the pH-dependent lipophilicity (logD) in data set [2] (read-out: logD) and in data set [3] were 7.77 and 7.76, respectively.
In the case of `CC(C)CNc1c(C#N)c2nc3ccccc3n2c2c1sc1ccccc12`, the IC50 in data set [1] is > 30 µM; in data set [4], > 30 µM; in data set [5] it was 5 µM; in data set [6], 9 µM; in data set [7], > 30 µM; in data set [8], > 30 µM. Besides, the logD came to 6.99 in data set [2] (read-out: logD) and 4.67 in data set [3].

Usually IC50 stands for the concentration that gives 50% inhibition. As usually defined, the logD is lipophilicity at a set pH, counting ionised and neutral species.
